Values quoted from earlier work in patent EP3568126B1, “[…] COMPOSITION” (Torrent Pharmaceuticals Limited, priority 2017, dated 2018).

## 3-[(1R,2R)-3-(dimethylamino)-1-ethyl-2-methylpropyl]phenol [tapentadol]
After oral dosing
  time of maximum serum concentration: around 1.25 hours
Oral administration
  administered tapentadol metabolized (first-pass metabolism): about 97%
  bioavailability: 32%
Oral formulations
  time after administration at which absorption occurs: at least 45 minutes
